Assays:
[1] = system: crib-biting horses; assay: Rate of crib-biting in horses after drug treatment; assay type: in vivo, horse
Experimental: Horses were admitted to the Large Animal Hospital of Tufts University School of Veterinary Medicine or were tested in their home barn. Cribbing straps and food were removed prior to testing. Control rates of crib-biting were observed and recorded for 5 minute intervals for one hour or more after an intravenous injection of 0.15 M saline. Test drugs were administered orally (by gavage) or by injection into the jugular vein. Solutions were made up with physiological saline and sterilized by filtration through a 0.2 micron filter (Millipore).
For the experimental data shown in FIG. 1, after establishment of a stable control rate of approximately 10 crib-bites per minute, 50 mg of D-methadone-HCl in 25 ml saline was injected i.v. In FIG. 1, the cumulative number of crib-bites was plotted against time as was the rate per 5 minute interval (Shuster, L. and N. H. Dodman, pp. 185-202, In Psychopharmacology of Animal Behavior Disorders, (N. H. Dodman and L. Shuster, eds.), Blackwell Scientific, Malden, Mass., 1998). […] The control rate then resumed during the next 80 minutes of observation. Horses were observed continuously during scoring for side effects that might be attributed to the treatment. These included changes in posture, disposition and motor activity. See also Table 1.

[2] = system: BALB/c male mice; assay: Mouse model for pruritus: scratching after compound 48/80; assay type: in vivo
Experimental: The animals used were BALB/c male mice, weighing 27-33 g. One mouse was used per compound tested, except for two control mice receiving saline; two different mice were tested with (+) methadone, each with a different dose. Compound 48/80 (Kuraishi, Y. et al., European Journal of Pharmacology 275:229-233, 1995), 0.5 mg/ml in saline, was injected subcutaneously in a volume of 0.1 ml, between the shoulder blades of the mouse. Test compounds, dissolved in saline, were injected intraperitoneally in a volume of 0.1 ml per 10 g, either 10 minutes before or 30 minutes after injection of compound 48/80. The cumulative number of scratches with a hind leg were recorded at 10 minute intervals for 60 minutes following the injection of compound 48/80. See Tables 2 and 3, as well as FIGS. 4, 5A and 5B, showing the effectiveness of the compounds tested: naltrexone, dextromethorphan, (+) methadone, haloperidol, and (+) naloxone.

[3] = system: stall-walking horse; assay: Stall-walking (turning) in a horse, circuits around the stall; assay type: in vivo; details: horse Full Circle (turning), 1.0 mg/kg, iv.
Experimental: Dextromethorphan-HBr, 1.0 mg/kg i.v., was injected after 60 minutes of control observations, to test its effect on a stall-walking horse. When measuring “stall walking” locomotor activity, each circuit around the stall was scored as one rotation. Cumulative rotations per 5 minute interval were plotted against time to establish the rate of circling. The results of the experiment are plotted in FIG. 2. See also Table 1.

[4] = horse CB, 0.2 mg/kg, iv., before treatment 8.8
[5] = 10 mg/kg i.p. 10 minutes before 48/80, 10 minutes after 48/80
[6] = 10 mg/kg i.p. 10 minutes before 48/80, 20 minutes after 48/80
[7] = 10 mg/kg i.p. 10 minutes before 48/80, 30 minutes after 48/80
[8] = 10 mg/kg i.p. 10 minutes before 48/80, 40 minutes after 48/80
[9] = 10 mg/kg i.p. 10 minutes before 48/80, 50 minutes after 48/80
[10] = 10 mg/kg i.p. 10 minutes before 48/80, 60 minutes after 48/80
[11] = 20 mg/kg i.p. 30 minutes after 48/80, time 10 minutes (before dosing)
[12] = 20 mg/kg i.p. 30 minutes after 48/80, time 20 minutes (before dosing)
[13] = 20 mg/kg i.p. 30 minutes after 48/80, time 30 minutes
[14] = 20 mg/kg i.p. 30 minutes after 48/80, time 40 minutes
[15] = 20 mg/kg i.p. 30 minutes after 48/80, time 50 minutes
[16] = 20 mg/kg i.p. 30 minutes after 48/80, time 60 minutes
[17] = horse CB, 0.2 mg/kg, iv., before treatment 8.2

CCC(=O)C(C[C@H](C)N(C)C)(c1ccccc1)c1ccccc1 [(+) Methadone]
rate of crib-bites per 5 minute interval ([1]; 50 mg in 25 ml saline i.v., control rate approximately 10 crib-bites per minute, resumed during the next 80 minutes): decreased between the second and the fifth 5-minute interval following injection | Crib-biting Frequency number per minute After treatment [1, 4]: 2.6 number per minute | Duration of Effect [1, 4]: 20 min | lag before effect [1, 4]: (10 min lag) | Duration of Effect ([1]; horse CB, .01 mg/kg, iv.): 10 min | Crib-biting Frequency number per minute After treatment ([1]; horse CB, .01 mg/kg, iv., before treatment 8.2): 5.5 number per minute | Cumulative Scratches ([2]; 5 mg/kg i.p. 30 minutes after 48/80, time 10 minutes (before dosing)): 0 | Cumulative Scratches ([2]; 5 mg/kg i.p. 30 minutes after 48/80, time 20 minutes (before dosing)): 56 | Cumulative Scratches ([2]; 5 mg/kg i.p. 30 minutes after 48/80, time 30 minutes): 114 | Cumulative Scratches ([2]; 5 mg/kg i.p. 30 minutes after 48/80, time 40 minutes): 145 | Cumulative Scratches ([2]; 5 mg/kg i.p. 30 minutes after 48/80, time 50 minutes): 210 | Cumulative Scratches ([2]; 5 mg/kg i.p. 30 minutes after 48/80, time 60 minutes): 267 | Cumulative Scratches [2, 5]: 0 | Cumulative Scratches [2, 6]: 0 | Cumulative Scratches [2, 7]: 0 | Cumulative Scratches [2, 8]: 0 | Cumulative Scratches [2, 9]: 0 | Cumulative Scratches [2, 10]: 0 | Cumulative Scratches ([2]; 10 mg/kg i.p. 30 minutes after 48/80, time 10 minutes (before dosing)): 6 | Cumulative Scratches ([2]; 10 mg/kg i.p. 30 minutes after 48/80, time 20 minutes (before dosing)): 38 | Cumulative Scratches ([2]; 10 mg/kg i.p. 30 minutes after 48/80, time 30 minutes): 106 | Cumulative Scratches ([2]; 10 mg/kg i.p. 30 minutes after 48/80, time 40 minutes): 107 | Cumulative Scratches ([2]; 10 mg/kg i.p. 30 minutes after 48/80, time 50 minutes): 107 | Cumulative Scratches ([2]; 10 mg/kg i.p. 30 minutes after 48/80, time 60 minutes): 107

C=CCN1CC[C@]23c4c5ccc(O)c4O[C@H]2C(=O)CC[C@]3(O)[C@H]1C5 [(+) naloxone]
Duration of Effect ([1]; horse CB, 0.12 mg/kg, iv.): 60 min | lag before effect ([1]; horse CB, 0.12 mg/kg, iv.): (30 min lag) | Crib-biting Frequency number per minute After treatment ([1]; horse CB, 0.12 mg/kg, iv., before treatment 10): 6.6 number per minute | Duration of Effect ([1]; horse CB, 0.18 mg/kg, i.v.): 60 min | lag before effect ([1]; horse CB, 0.18 mg/kg, i.v.): (no lag) | Crib-biting Frequency number per minute After treatment ([1]; horse CB, 0.18 mg/kg, i.v., before treatment 9.2): 0.8 number per minute | Cumulative Scratches [2, 11]: 4 | Cumulative Scratches [2, 12]: 48 | Cumulative Scratches [2, 13]: 105 | Cumulative Scratches [2, 14]: 112 | Cumulative Scratches [2, 15]: 146 | Cumulative Scratches [2, 16]: 175

COc1ccc2c(c1)[C@]13CCCC[C@@H]1[C@H](C2)N(C)CC3 [Dextromethorphan]
Duration of Effect ([1]; horse CB, 1.0 mg/kg, i.v.): 35 min | lag before effect ([1]; horse CB, 1.0 mg/kg, i.v.): (no lag) | Crib-biting Frequency number per minute After treatment ([1]; horse CB, 1.0 mg/kg, i.v., before treatment 7.6): 0.3 number per minute | Duration of Effect ([1]; horse CB, 1.0 mg/kg, p.o.): 90 min | lag before effect ([1]; horse CB, 1.0 mg/kg, p.o.): (35 min lag) | Crib-biting Frequency number per minute After treatment ([1]; horse CB, 1.0 mg/kg, p.o., before treatment 8): 1.7 number per minute | Duration of Effect ([1]; horse Frito, 3.2 mg/kg p.o.): 100 min | lag before effect ([1]; horse Frito, 3.2 mg/kg p.o.): (30 min lag) | Crib-biting Frequency number per minute After treatment ([1]; horse Frito, 3.2 mg/kg p.o., before treatment 3.5): 1.8 number per minute | Duration of Effect [3]: 45 min | lag before effect [3]: (no lag) | turns per min. After treatment ([3]; before treatment 3.5 turns per min.): .3 turns turns per min. | Cumulative Scratches [2, 5]: 1 | Cumulative Scratches [2, 6]: 57 | Cumulative Scratches [2, 7]: 105 | Cumulative Scratches [2, 8]: 157 | Cumulative Scratches [2, 9]: 182 | Cumulative Scratches [2, 10]: 192 | Cumulative Scratches [2, 11]: 47 | Cumulative Scratches [2, 12]: 125 | Cumulative Scratches [2, 13]: 158 | Cumulative Scratches [2, 14]: 171 | Cumulative Scratches [2, 15]: 178 | Cumulative Scratches [2, 16]: 185

O=C(CCCN1CCC(O)(c2ccc(Cl)cc2)CC1)c1ccc(F)cc1 [Haloperidol]
Cumulative Scratches ([2]; 2.0 mg/kg i.p. 30 minutes after 48/80, time 10 minutes (before dosing)): 2 | Cumulative Scratches ([2]; 2.0 mg/kg i.p. 30 minutes after 48/80, time 20 minutes (before dosing)): 87 | Cumulative Scratches ([2]; 2.0 mg/kg i.p. 30 minutes after 48/80, time 30 minutes): 108 | Cumulative Scratches ([2]; 2.0 mg/kg i.p. 30 minutes after 48/80, time 40 minutes): 137 | Cumulative Scratches ([2]; 2.0 mg/kg i.p. 30 minutes after 48/80, time 50 minutes): 137 | Cumulative Scratches ([2]; 2.0 mg/kg i.p. 30 minutes after 48/80, time 60 minutes): 142

O=C1CC[C@@]2(O)[C@H]3Cc4ccc(O)c5c4[C@@]2(CCN3CC2CC2)[C@H]1O5 [Naltrexone]
Cumulative Scratches [2, 5]: 0 | Cumulative Scratches [2, 6]: 0 | Cumulative Scratches [2, 7]: 0 | Cumulative Scratches [2, 8]: 1 | Cumulative Scratches [2, 9]: 61 | Cumulative Scratches [2, 10]: 73

CNC1(c2ccccc2Cl)CCCCC1=O (stereo not drawn) [ketamine]
Crib-biting Frequency number per minute After treatment [1, 17]: 1.3 number per minute | Duration of Effect [1, 17]: 50 min | lag before effect [1, 17]: (no lag)

(−) naloxone
Duration of Effect ([1]; horse CB, .04 mg/kg, i.v.): 65 min | lag before effect ([1]; horse CB, .04 mg/kg, i.v.): (10 min lag) | Crib-biting Frequency number per minute After treatment ([1]; horse CB, .04 mg/kg, i.v., before treatment 12): 0.1 number per minute

Reference: patent US6500838B2, “Treatment of stereotypic, self-injurious and compulsive behaviors in man and animals using antagonists of NMDA receptors” (The Trustees of Tufts College, priority 1998, dated 2002)
